Activity calls are given as the source filed them.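 How the source made its calls: active means compounds giving half or more protection of infected cells from virus-caused growth loss, again on retest; inactive means the rest.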
System: CEM cells HIV-1 protection, formazan growth assay
Assay: NCI AIDS Antiviral Assay
Conditions: for IC50: measured here: growth of uninfected CEM cells
Outline: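 Human CEM cells, uninfected and HIV-1-infected, exposed to five drug concentrations; growth measured by soluble formazan assay and scored as percent protection from infection, with protecting compounds retested.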

Structure (SMILES)	EC50 [µM]	IC50 [µM]	outcome
CCC(=O)c1cc(C(=O)C(=S)SC)cc(C(=O)C(=S)SC)c1	20	30.9	–
Brc1ccc2c(c1)C1C(CO2)C(c2ccccc2)=NN1c1ccccc1 (centres undefined)	> 64.6	> 64.6	–
O=c1c(SCc2cccc(F)c2)c(SCc2cccc(F)c2)cnn1-c1ccccc1	> 30.2	21.9	–
Cc1ccc(SSCCCCS(=O)O)cc1	–	–	inactive
O=C(CCC(NC(=O)OCc1ccccc1)C(=O)OCc1ccccc1)Nc1ccc(OCc2ccccc2)cc1 (centres undefined)	> 200	126	–
OCC(O)C(OC1OC(CO)C(O)C(O)C1O)C(O)C(/C=N\Nc1ccccc1)=N/Nc1ccccc1 (centres undefined)	> 200	4.9	–
COC(=O)/C=C(\C(=O)OC)c1c2c3c(cc(OC)c(OC)c3c3ccccc13)CCN2C	–	–	inactive
O=C1OC[C@H](Cc2ccccc2)N1C(=O)[C@H]1NC(=S)OC1Cc1ccc(OCc2ccccc2)cc1 (some centres undefined)	–	–	inactive
CN1COCc2cc3cc4c(cc3nc21)OCCO4	> 200	97.7	–
CCN(CC)C1Oc2cc3c(cc2C(c2cc(OC)c(OC)c(OC)c2)C1C)OCO3 (centres undefined)	> 100	0.537	–
CCOC(=O)CCC(=O)Oc1ccc2c(c1OC(=O)CCC(=O)OCC)C(=O)c1ccccc1C2=O	> 87.1	46.8	–
CCC(CON(C)c1ccccc1)(SC)SC	> 200	105	–
O=[N+]([O-])C(=C/c1ccccc1)/C(=C\c1ccccc1)[N+](=O)[O-]	> 200	15.5	–
O=[N+]([O-])c1cc(Cl)ccc1OCc1ccccc1	–	–	inactive
CC(NC(=O)C(N)CC(=O)O)NC(=O)N1CCCC1 (centres undefined)	> 200	> 200	–
O=c1[nH]c(N2CCOCC2)nc2cc3ccccc3cc12	> 155	> 155	–
O=S(=O)(C1=CC(S(=O)(=O)c2ccccc2)COC1)c1ccccc1 (centres undefined)	–	–	inactive
CCOC(=O)c1nc(SC)n(C)c1C(=O)OCC	> 200	> 200	–
O=C(c1ccccc1)[C@H]1Nc2ccc(Cl)cc2[C@H]2OCCC[C@@H]12	> 11.5	> 11.5	–
Cn1c(=O)ccc2ccc(N(CCO)CCO)nc21	> 200	> 200	–
COC(=O)C1(NC(=O)C(N)CC(=O)O)C(C)C1C (centres undefined)	> 200	> 200	–
O=C1C2C3C=C4c5ccccc5N(c5ccccc5)C4(C2C(=O)N1c1ccc(Cl)cc1)[C@H]1C(=O)N(c2ccc(Cl)cc2)C(=O)[C@@H]31 (some centres undefined)	> 3.16	> 3.16	–

Structure (SMILES)	EC50 [µM]	IC50 [µM]	outcome
Cc1c(C(=O)O)cc2n(c1=O)Cc1cc3ccccc3nc1-2	> 10	> 10	–
Cc1ccc(C2(Br)C(=O)c3ccccc3C2=O)cc1	> 200	> 200	–
COc1ccc(/C=N/NS(=O)(=O)c2ccc(/C=C3\NC(=O)NC3=O)cc2)cc1	> 200	> 200	–
COc1cc2c(c(C(C)(C)C)c1)OC1(O)C2=CC(=O)C=C1C(C)(C)C (centres undefined)	> 20	0.372	–
COc1ccc(CNc2cnc3cc(N)ccc3n2)cc1	> 67.6	> 67.6	–
C[C@]12CC[C@H]3[C@@H](C[C@@H](O)[C@]45C[C@@H]4CC[C@]35C)[C@@H]1CC[C@@]21C=CC(=O)O1	> 200	95.5	–
C1#CCSCC#CCSC1	> 42.7	> 42.7	–
Oc1ccc2cc(SSc3ccc4cc(O)ccc4c3)ccc2c1	> 200	8.13	–
O=c1oc2nc3ccc(Cl)cc3c(=O)n2c2ccc(Cl)cc12	> 200	> 200	–
COC(=O)C1=CCC(n2cnc3c(Cl)nc(N)nc32)CC1 (centres undefined)	> 115	47.9	–
COc1ccc(-n2c(N)c(C#N)c3c(c2=S)CCC3)cc1	> 316	> 316	–
CCC(=O)C(C(C)/C=C/CCSc1ccccc1)C(O)CCCCCC(=O)OC (centres undefined)	> 200	36.3	–
CC(C)C(OC(=O)c1ccc(NCc2cc(O)ccc2O)cc1)C(C)C	> 200	1.41	–
CC(C)(C)C(=O)Cc1cc2c(cc1C(=O)O)S(=O)(=O)NC(C(C)(C)C)=C2	> 479	> 479	–
C/C=C1\CNC1C(=O)O (centres undefined)	> 200	> 200	–
CC1CN=C(c2ccc(NC(=O)c3ccc(C(=O)Nc4ccc(C5=NCC(C)CN5)cc4)cc3)cc2)NC1 (centres undefined)	> 200	25.1	–
Cc1cn(C(CO)OC(CO)CP(=O)(O)O)c(=O)[nH]c1=O (centres undefined)	> 200	> 200	–
C=CC[C@]12CC[C@H](O)[C@@]1(C)CCC(=O)/C2=N\N	–	–	inactive
NC(CCCC(N)P(=O)(O)O)P(=O)(O)O (centres undefined)	–	–	inactive
COc1cc(CCCl)c(CC2=NCCc3cc(OC)c(OC)cc32)cc1OC	> 200	31.6	–
CC(=O)NC1C(=O)N(c2ccccc2)C1c1ccccc1 (centres undefined)	> 178	> 178	–

Reference: PubChem BioAssay AID179 (DTP/NCI, 2004)
